From PubChem BioAssay AID248 (DTP/NCI, 2004)
Several values for one entry are separate records, joined by “and”; a condition that tells them apart may be missing. Equal values may be shown once. Toxic doses and inconclusive results are not listed. No stated cut-off is given here; in the data, active means T/C of 150% or more; inactive means T/C below 125%.

Test system: L1210 leukemia ip in BDF1 mice, survival T/C
Assay: NCI In Vivo Anticancer Drug Screen. Data for tumor model L1210 Leukemia (intraperitoneal) in B6D2F1 (BDF1) mice
Conditions: endpoint: mean survival time, higher = longer survival
Outline: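 Tumor was transplanted into mice, which were then dosed with test compound or vehicle alone. Survival was recorded for each group, and the treated figure was expressed relative to the control figure.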

[1] = dose: 75.0 mg/kg/injection, schedule: Q01DX001 (ip), vehicle: saline
[2] = dose: 150.0 mg/kg/injection, schedule: Q01DX001 (ip), vehicle: saline
[3] = dose: 100.0 mg/kg/injection, schedule: Q04DX003 (ip), vehicle: saline
[4] = dose: 200.0 mg/kg/injection, schedule: Q04DX003 (ip), vehicle: saline
[5] = dose: 400.0 mg/kg/injection, schedule: Q04DX003 (ip), vehicle: saline
[6] = dose: 300.0 mg/kg/injection, schedule: Q01DX001 (ip), vehicle: saline
[7] = dose: 100.0 mg/kg/injection, schedule: Q04DX003 (ip), vehicle: Klucel (hydroxypropylcellulose) (HPC)
[8] = dose: 200.0 mg/kg/injection, schedule: Q04DX003 (ip), vehicle: Klucel (hydroxypropylcellulose) (HPC)
[9] = dose: 400.0 mg/kg/injection, schedule: Q04DX003 (ip), vehicle: Klucel (hydroxypropylcellulose) (HPC)
[10] = dose: 50.0 mg/kg/injection, schedule: Q01DX001 (ip), vehicle: carboxymethylcellulose (CMC)
[11] = dose: 100.0 mg/kg/injection, schedule: Q01DX001 (ip), vehicle: carboxymethylcellulose (CMC)
[12] = dose: 200.0 mg/kg/injection, schedule: Q01DX001 (ip), vehicle: carboxymethylcellulose (CMC)
[13] = dose: 400.0 mg/kg/injection, schedule: Q01DX001 (ip), vehicle: carboxymethylcellulose (CMC)
[14] = dose: 100.0 mg/kg/injection, schedule: Q04DX003 (ip), vehicle: saline with Tween-80
[15] = dose: 200.0 mg/kg/injection, schedule: Q04DX003 (ip), vehicle: saline with Tween-80
[16] = dose: 400.0 mg/kg/injection, schedule: Q04DX003 (ip), vehicle: saline with Tween-80
[17] = dose: 100.0 mg/kg/injection, schedule: Q01DX009 (ip), vehicle: saline with Tween-80
[18] = dose: 200.0 mg/kg/injection, schedule: Q01DX009 (ip), vehicle: saline with Tween-80
[19] = dose: 50.0 mg/kg/injection, schedule: Q04DX002 (ip), vehicle: Klucel (hydroxypropylcellulose) (HPC)
[20] = dose: 100.0 mg/kg/injection, schedule: Q04DX002 (ip), vehicle: Klucel (hydroxypropylcellulose) (HPC)
[21] = dose: 200.0 mg/kg/injection, schedule: Q04DX002 (ip), vehicle: Klucel (hydroxypropylcellulose) (HPC)
[22] = dose: 400.0 mg/kg/injection, schedule: Q04DX002 (ip), vehicle: Klucel (hydroxypropylcellulose) (HPC)

Measured: T/C

OC(C[n+]1ccsc1)c1ccccc1 (stereo not given)
inactive: [1] 96 % of control | [2] 100 % of control

CCN(CC)C(=O)c1cc(NC(=O)Nc2ccc(C3=NCCN3)cc2)cc(NC(=O)Nc2ccc(C3=NCCN3)cc2)c1
inactive: dose: 62.0 mg/kg/injection, schedule: Q01DX Z (ip), vehicle: carboxymethylcellulose (CMC) 91 % of control | dose: 125.0 mg/kg/injection, schedule: Q01DX Z (ip), vehicle: carboxymethylcellulose (CMC) 97 % of control | dose: 250.0 mg/kg/injection, schedule: Q01DX Z (ip), vehicle: carboxymethylcellulose (CMC) 97 % of control | dose: 500.0 mg/kg/injection, schedule: Q01DX Z (ip), vehicle: carboxymethylcellulose (CMC) 88 % of control

CC1OC2COC(C)OC2C(C(O)COC(=O)c2ccc([N+](=O)[O-])cc2)O1 (stereo not given)
inactive: dose: 100.0 mg/kg/injection, schedule: Q01DX009 (ip), vehicle: saline 98 % of control | [3] 110 % of control | dose: 200.0 mg/kg/injection, schedule: Q01DX009 (ip), vehicle: saline 98 % of control | [4] 104 % of control | dose: 400.0 mg/kg/injection, schedule: Q01DX009 (ip), vehicle: saline 103 % of control | [5] 101 % of control

COc1cc2ccnc(-c3onc4cc(OC)c(OC)cc34)c2cc1OC
inactive: [1] 101 % of control | [2] 98 % of control | [6] 98 % of control

CCOC(=O)C(Cc1ccccc1)NP(=O)(OCCCl)OCCCl (stereo not given)
inactive: dose: 100.0 mg/kg/injection, schedule: Q01DX009 (ip), vehicle: Klucel (hydroxypropylcellulose) (HPC) 104 % of control | [7] 95 % of control | dose: 200.0 mg/kg/injection, schedule: Q01DX009 (ip), vehicle: Klucel (hydroxypropylcellulose) (HPC) 96 % of control | [8] 95 % of control | dose: 400.0 mg/kg/injection, schedule: Q01DX009 (ip), vehicle: Klucel (hydroxypropylcellulose) (HPC) 101 % of control | [9] 87 % of control

O=[N+]([O-])c1ccc(CSCc2ccccc2)cc1
inactive: [10] 102 % of control | [11] 102 % of control | [12] 109 % of control | [13] 98 % of control

Cc1cc(C)c(NS(=O)(=O)c2ccc([N+](=O)[O-])cc2)c(C)c1
inactive: [14] 89 % of control | [15] 93 % of control | [16] 86 % of control

O=C(O)c1cccnc1Br
inactive: [14] 105 % of control | [15] 101 % of control | [16] 100 % of control

CCCCCCCCc1c(N)nc(N)[nH]c1=O
inactive: dose: 100.0 mg/kg/injection, schedule: Q01DX001 (ip), vehicle: Klucel (hydroxypropylcellulose) (HPC) 99 % of control | dose: 200.0 mg/kg/injection, schedule: Q01DX001 (ip), vehicle: Klucel (hydroxypropylcellulose) (HPC) 92 % of control | dose: 400.0 mg/kg/injection, schedule: Q01DX001 (ip), vehicle: Klucel (hydroxypropylcellulose) (HPC) 92 % of control

CCC(=O)C(C)(C)c1ccccc1 (tested in a mixture with another compound)
inactive: dose: 50.0 mg/kg/injection, schedule: Q01DX009 (ip), vehicle: saline with Tween-80 95 % of control | [17] 88 % of control | [18] 96 % of control

CCOC(=O)c1cn(C2OC(COC(=O)c3ccccc3)C(OC(=O)c3ccccc3)C2OC(=O)c2ccccc2)c(=O)nc1Nc1ccccc1Cl (stereo not given)
inactive: dose: 25.0 mg/kg/injection, schedule: Q01DX005 (ip), vehicle: saline 104 % of control | dose: 50.0 mg/kg/injection, schedule: Q01DX005 (ip), vehicle: saline 105 % of control | dose: 75.0 mg/kg/injection, schedule: Q01DX005 (ip), vehicle: saline 105 % of control | dose: 100.0 mg/kg/injection, schedule: Q01DX005 (ip), vehicle: saline 123 % of control | dose: 200.0 mg/kg/injection, schedule: Q01DX005 (ip), vehicle: saline 92 % of control

CC1CN(c2nc3ccccc3o2)C(C)CN1c1nc2ccccc2o1 (stereo not given)
inactive: [11] 96 % of control | [12] 94 % of control | [13] 89 % of control

CC(C)C(=O)NC1CCCCC1
inactive: dose: 25.0 mg/kg/injection, schedule: Q04DX002 (ip), vehicle: Klucel (hydroxypropylcellulose) (HPC) 111 % of control | [19] 111 % of control | [20] 101 % of control

CCC(C)OP(=S)(S)OC(C)CC (stereo not given) (tested in a mixture with another compound)
inactive: dose: 100.0 mg/kg/injection, schedule: Q04DX002 (ip), vehicle: saline 96 % of control | dose: 200.0 mg/kg/injection, schedule: Q04DX002 (ip), vehicle: saline 99 % of control | dose: 400.0 mg/kg/injection, schedule: Q04DX002 (ip), vehicle: saline 96 % of control

N=c1nc(N)c([N+](=O)[O-])c(N)n1O
inactive: [11] 100 % of control | [12] 97 % of control | [13] 100 % of control

CCCCNC(C)(C)C(SC(C)=O)c1ccc(Cl)cc1 (stereo not given)
inactive: [17] 89 % of control

CNC(C)(C)CO
inactive: [3] 100 % of control | [4] 107 % of control | [5] 104 % of control

CCCCCCCCCCNC(=O)C[n+]1cccc(C(=O)Nc2ccccc2)c1
inactive: dose: 3.12 mg/kg/injection, schedule: Q01DX009 (ip), vehicle: saline with Tween-80 100 % of control | dose: 6.25 mg/kg/injection, schedule: Q01DX009 (ip), vehicle: saline with Tween-80 105 % of control | dose: 12.5 mg/kg/injection, schedule: Q01DX009 (ip), vehicle: saline with Tween-80 88 % of control | dose: 12.5 mg/kg/injection, schedule: Q04DX003 (ip), vehicle: saline 103 % of control | dose: 25.0 mg/kg/injection, schedule: Q04DX003 (ip), vehicle: saline 88 % of control

O=C1Nc2ccccc2C1=Nc1ccc(F)cc1
inactive: dose: 100.0 mg/kg/injection, schedule: Q01DX001 (ip), vehicle: saline 96 % of control | dose: 200.0 mg/kg/injection, schedule: Q01DX001 (ip), vehicle: saline 92 % of control | dose: 400.0 mg/kg/injection, schedule: Q01DX001 (ip), vehicle: saline 94 % of control

CCOc1cccc2c(=O)c(C(=O)O)cn(CC)c12
inactive: [20] 93 % of control | [21] 107 % of control | [22] 104 % of control

CC1=N/C(=C/c2ccc([N+](=O)[O-])s2)C(=O)O1
inactive: [19] 112 % of control | [20] 97 % of control | [21] 95 % of control and 115 % of control | [22] 98 % of control

C[Si](C)(CCCC(N)C(=O)O)O[Si](C)(C)CCCC(N)C(=O)O (stereo not given)
inactive: [7] 98 % of control | [8] 100 % of control | [9] 98 % of control

C=C(C)CNc1ccccc1
inactive: [17] 95 % of control | [14] 97 % of control | [18] 93 % of control | [15] 97 % of control | [16] 103 % of control

BrC1(c2ccccc2)C(c2ccccc2)=C1c1ccccc1
inactive: [10] 94 % of control | [11] 94 % of control | [12] 96 % of control

Cc1ccc(S(=O)(=O)NNC(=O)c2ccc(-c3ccc[nH]3)[nH]2)cc1
inactive: [1] 93 % of control | [2] 92 % of control | [6] 98 % of control

CC(=O)Nc1c(I)cc2c(c1I)Cc1cc([N+](=O)[O-])ccc1-2
inactive: [11] 98 % of control | [12] 104 % of control | [13] 93 % of control
